Measured values published in patent publication US10633332B2, “Guanidine compounds for removal of oxyanions from aqueous solutions and for carbon dioxide capture” (UT-Battelle, LLC, priority 2010, dated 2020).
Values joined by “and” are separate entries in the source; they are usually repeats but may differ in a detail not shown here. Identical values can stand only once. Like-named read-outs stand apart in the source and are kept apart here. Marks after values point to notes of the source that are not given here.

Experiments:
[1] = Sulfate separation from seawater (35S radiotracer, β liquid scintillation counting); conditions: for % Sulfate Removed / Sulfate Left: initial sulfate 30 mmol/L; for Amount of SO4^2− removed / [SO4^2−] left: initial sulfate 30 mM
Method: The seawater used in the experiment was collected from the gulf stream in the Atlantic Ocean. Prior to use, the water was pre-filtered to remove suspended particulates and small organisms. […] The sulfate concentration in seawater was estimated to be about 30 mM by titration with BaCl2. […] A volume of 0.75 mL of each of these solutions was pipetted into a 2 mL Eppendorf microcentrifuge tube, and 0.75 mL of seawater pre-spiked with the ^35S radiotracer was added. The resulting solution mixtures were mixed for 24 hours using a rotating wheel set at 60 rpm in a temperature-controlled air-box set at 25±0.2° C. […] The radiolabeled ^35S radiotracer is a β emitter, thereby allowing determination of the sulfate concentration of a solution spiked with a known amount of Na2^35SO4 by β liquid scintillation counting. The seawater solutions were pre-spiked with […] of the ^35S radiotracer, as above. […] The volume of the spike solution was determined by factoring in the original activity of the solution and correcting for the short half-life of the ^35S radiotracer. The Na2^35SO4 solution had completed 3.8 half-lives before use in this experiment. […] The resulting mixtures were vigorously shaken to allow for complete dissolution and dispersion of the salt solutions. The samples were then placed on the analyzer and counted for 30 minutes after allowing 60 minutes for dark-adaption.

[2] = cited from earlier work; for reaction rate of CO2 with the amino acid: 25° C., expected
[3] = literature value; cited from earlier work
[4] = Sulfate removal from a calcium sulfate suspension (CaSO4 dissolution cycle); conditions: overnight, room temperature, pH 6-7, powder X-ray diffraction
Method: An example of sulfate removal from a calcium sulfate suspension is shown schematically in FIG. 5. In the first step, the initial CaSO4 solid is treated with an aqueous chloride salt of the compound that results in crystallization of the guanidinium sulfate salt and release of the calcium ions in solution, as soluble CaCl2. In the second step, the insoluble guanidinium sulfate salt is treated with sodium hydroxide base to neutralize the guanidinium cations and release the sulfate ions in solution, as soluble Na2SO4. The resulting solid guanidine compound is then recycled and converted back into guanidinium chloride with aqueous HCl, so it can be reused in another CaSO4 dissolution cycle. Thus, the entire process is done in water (no organic solvents used), and the only chemicals consumed in the overall process are NaOH and HCl, resulting in two aqueous waste streams consisting of calcium chloride and sodium sulfate. The unique aspect of this invention is the employment of a crystallization process to achieve dissolution of CaSO4. Also, this approach is based on anion chelation by guanidinium groups rather than the more common metal chelation, which may be prone to interference from other metals in solution. […] Finally, the recovered BBIG was converted back into the chloride salt by treatment with aqueous hydrochloric acid and recycled for another CaSO4 dissolution cycle.

[5] = Aqueous solubility of BBIG salts (gravimetric / UV spectroscopy); conditions: 25 °C, water, thermodynamic from solid
Method: The solubility of BBIG-Cl was determined gravimetrically. A saturated solution of BBIG-Cl was obtained by placing an excess of the salt in a 15 mL polypropylene centrifuge tube and adding 2 mL of deionized water (milli-Q). […] One mL of the saturated salt solution was then pipetted into a pre-weighed glass vial containing a magnetic stir bar. The water was then removed under reduced pressure and gentle heating (˜50° C.) while stirring. The resulting solid was left under vacuum overnight to ensure complete removal of the water, prior to weighing the vial.
These solutions were then diluted to ensure the concentrations of the BBIG di-cation were in the concentration range of the calibration curve.

[6] = Carbonate/bicarbonate CO2 capture cycle: crystallization from 1 M NaHCO3
From the text: Finally, thermal decomposition of PyBIGH2(CO3)(H2O)4 regenerates the PyBIG compound and releases the CO2. […] The resulting mixture was filtered, and the separated crystalline solid was confirmed by PXRD and FTIR to be PyBIGH2(CO3)(H2O)4. […] The entire carbonate separation cycle was run three times, with observed yields for PyBIGH2(CO3)(H2O)4 crystallization of 99.0±0.4%, 97.2±0.6%, and 91.4±0.4%, corresponding to the first, second, and third cycle, respectively. The regeneration of the PyBIG compound was nearly quantitative in each cycle.

[7] = Differential scanning calorimetry of CO2 release; format: physicochemical; conditions: DSC, all peaks between 80 and 140° C. integrated
From the text: Although the CO2 desorption could theoretically be achieved by running reactions 1-6 in reverse order according to the principle of microscopic reversibility, in reality it would not be feasible as reaction 4 is practically irreversible. Such an approach would also defeat the purpose of avoiding heating the aqueous sorbent. Instead, once the loading is complete, the crystalline PyBIGH2(CO3)(H2O)4 is removed from solution and heated in the solid state to release the CO2 gas and the water vapors. Given the completely different conditions involved, such a gas-solid process must have different energetics compared to the gas-liquid-solid process involved in CO2 absorption. In order to determine the enthalpy of CO2 release, differential scanning calorimetry (DSC) was employed. DSC is a common technique used in thermal analysis of solids. […] As the enthalpy of vaporization for water is 40.65 kJ/mol, more than 90% of the enthalpy of desorption is used for water evaporation. This represents a significant energy penalty that must be accounted for, and which encourages the use of renewable sources of energy, such as concentrated solar power (vide infra), to make the overall DAC process energy more sustainable.

[8] = CO2 release and PyBIG regeneration using concentrated solar power; format: physicochemical; conditions: for Δm: 38 mg sample
Method: Carbon dioxide release and regeneration of PyBIG using concentrated solar power: The CO2 release from the PyBIGH2(CO3)(H2O)4 crystals was carried out by solar heating with a solar oven. The oven consists of a vacuum-insulated borosilicate tube placed in the focal point of two adjustable parabolic reflectors. The temperature inside the tube was monitored with a thermocouple. The PyBIGH2(CO3)(H2O)4 samples (0.038 g, 0.1 mmol) were loaded in 1 mL glass vials, which were placed inside the oven tube. The solar oven was then placed in the full sun and oriented to capture the maximum amount of sunlight. The temperature was ramped to the targeted values of 120° C., 140° C., 150° C., or 160° C. as fast as possible (typically within 3 to 10 minutes), then held within ±2° C. by intermittently moving the oven out of the sun, or/and closing the reflectors. The samples were subsequently removed from the tube, allowed to cool to room temperature, and weighed to determine their mass loss. The resulting yellow solids were analyzed by FTIR to confirm the disappearance of the carbonate and water peaks.
However, considering this transformation is highly endothermic, the possibility of using concentrated solar power to render the process more energy sustainable was explored. For the initial small-scale proof of concept, a solar oven (FIG. 6) was used to heat the PyBIGH2(CO3)(H2O)4 samples (38 mg, 0.1 mmol) at four different temperatures ranging between 120 and 160° C., monitoring the extent of the reactions by the samples' weight loss (Table 7 below). FTIR analyses also corroborated the release of CO2, most evidently noticeable by the disappearance of the strong peak at 1361 cm^−1 corresponding to the stretching mode of the carbonate anion.

[9] = aqueous, ˜10 mM
[10] = Thermodynamic analysis: reaction enthalpies (variable-temperature solubility, pKa, van't Hoff)

Cl.Cl.N=C(N)N/N=C/c1cccc(/C=N/NC(=N)N)n1 [Compound 2]
degree of separation of sulfate from seawater [1]: very high degrees of separation
% Sulfate Removed ([1]; compound 15 mmol/L): 48.41% and 48.57%
Sulfate Left ([1]; compound 15 mmol/L): 1487 mg/L and 1482 mg/L
% Sulfate Removed ([1]; compound 30 mmol/L): 93.28% and 94.41%
Sulfate Left ([1]; compound 30 mmol/L): 194 mg/L and 161 mg/L
% Sulfate Removed ([1]; compound 33 mmol/L): 99.72% and 99.60%
Sulfate Left ([1]; compound 33 mmol/L): 8 mg/L and 12 mg/L
% Sulfate Removed ([1]; compound 45 mmol/L): 99.94%
Sulfate Left ([1]; compound 45 mmol/L): 1.7 mg/L
% Sulfate Removed ([1]; compound 60 mmol/L): 99.95%
Sulfate Left ([1]; compound 60 mmol/L): 1.5 mg/L

NCC(=O)O [Glycine, glycine]
reaction rate of CO2 with the amino acid [2]: 13.9 kM/s
pKa [3]: 9.5

CNCC(=O)O [Sarcosine, sarcosine]
reaction rate of CO2 with the amino acid [2]: 18.6 kM/s

Cl.Cl.N=C(N)N/N=C/c1ccc(/C=N/NC(=N)N)cc1 [Compound 1]
degree of separation of sulfate from seawater [1]: very high degrees of separation
Amount of SO4^2− removed ([1]; 1 equiv BBIG): 88%
[SO4^2−] left ([1]; 1 equiv BBIG): 3.5 mM
Amount of SO4^2− removed ([1]; 1.1 equiv BBIG): 95%
[SO4^2−] left ([1]; 1.1 equiv BBIG): 1.6 mM
Amount of SO4^2− removed ([1]; 1.5 equiv BBIG): 99%
[SO4^2−] left ([1]; 1.5 equiv BBIG): 0.3 mM
Amount of SO4^2− removed ([1]; 2 equiv BBIG): 99%
[SO4^2−] left ([1]; 2 equiv BBIG): 0.3 mM
% Sulfate Removed ([1]; compound 15 mmol/L): 40.8% and 41.8%
Sulfate Left ([1]; compound 15 mmol/L): 1706 mg/L and 1676 mg/L
% Sulfate Removed ([1]; compound 30 mmol/L): 88.7% and 88.0%
Sulfate Left ([1]; compound 30 mmol/L): 326 mg/L and 347 mg/L
% Sulfate Removed ([1]; compound 33 mmol/L): 95.6% and 93.6%
Sulfate Left ([1]; compound 33 mmol/L): 128 mg/L and 185 mg/L
% Sulfate Removed ([1]; compound 45 mmol/L): 99.0% and 98.9%
Sulfate Left ([1]; compound 45 mmol/L): 28 mg/L and 30 mg/L
% Sulfate Removed ([1]; compound 60 mmol/L): 98.9%
Sulfate Left ([1]; compound 60 mmol/L): 31 mg/L
conversion of solid CaSO4(H2O)2 into crystalline BBIG-SO4(H2O)2 [4]: complete conversion
solubility at 48 h [5]: 63 mM

N=C(N)NN=Cc1cccc(C=NNC(=N)N)n1.O.O.O.O.O=C(O)O [PyBIGH2(CO3)(H2O)4]
yield of PyBIGH2(CO3)(H2O)4 crystallization ([6]; first cycle, 1 M NaHCO3, room temperature, four hours): 99.0±0.4%
yield of PyBIGH2(CO3)(H2O)4 crystallization ([6]; second cycle): 97.2±0.6%
yield of PyBIGH2(CO3)(H2O)4 crystallization ([6]; third cycle): 91.4±0.4%
overall enthalpy of desorption [7]: 53.3 ± 0.96 kcal/mol
Δm/mi ([8]; 120° C., 30 min): −31.6%
Δm ([8]; 120° C., 30 min): -12 mg
Δm/mi ([8]; 140° C., 10 min): −34.2%
Δm ([8]; 140° C., 10 min): -13 mg
Δm/mi ([8]; 150° C., 5 min): −31.6%
Δm ([8]; 150° C., 5 min): -12 mg
Δm/mi ([8]; 160° C., 2 min): −36.8%
Δm ([8]; 160° C., 2 min): -14 mg
temperature of heating at which CO2 is released (heating the carbonate crystals): 80-120 °C
decomposition completion (isothermal TGA at 80° C., after 300 minutes): 77%
time to complete loss of carbon dioxide and water (isothermal TGA at 100° C.): 150 min
time to complete loss of carbon dioxide and water (isothermal TGA at 120° C.): 60 min
mass loss (oven, one hour at 120° C.): 34.3%
mass loss (temperature-ramped TGA, between 65 and 140° C.): 35.2%

[Na+].[OH-] [NaOH]
flux of CO2 absorbed from air ([2]; 1 M solution): around 30 μmol/m2/s

N=C(N)N/N=C/c1cccc(/C=N/NC(=N)N)n1 [PyBIG]
no decomposition of the regenerated compound up to (TGA-MS): 190 °C
pH of saturated solution [9]: about 10
ΔH reaction 1 (PyBIG dissolution) ([10]; This study): 10.2 kcal/mol
ΔH reaction 6 (PyBIGH2(CO3)(H2O)4 crystallization) ([10]; This study): -11.2 kcal/mol
ΔH reaction 2 (PyBIG protonation by water) ([10]; This study, composed from protonation enthalpies and ionization of water): 43.6^a kJ/mol
overall enthalpy of CO2 absorption ([10]; sum of reactions 1-6): -16.9 kcal/mol
